# Laboratory results reported in paper PMC7490411 (Signal Transduction and Targeted Therapy, 2020).
# Assays:
# [1] = rat 14-day dose escalation subacute toxicity study; type: in vivo; details: rats, up to 800 mg/kg/day, continuous 14 days
# Method: The subacute toxicity study of CHMFL-BTK-85 was conducted on SD rats, 200g in weight and five weeks in age. All mice were purchased from Gempharmatech Co., Ltd (Nanjing, China). All animals were housed in a specific pathogen-free facility and used according to the animal care regulations of Hefei Institutes of Physical Science Chinese Academy of Sciences. CHMFL-BTK-85 was delivered daily in a HKI solution (0.5% Methocellulose/0.4% Tween 80 in ddH2O) by orally gavage. Body weight was measured daily after CHMFL-BTK-85 treatment.
# ERBB4 = assay: KINOMEscan; type: binding; details: 1000 nM
# AMPK-alpha1 = assay: KINOMEscan; type: binding; details: 1000 nM
# KIT(A829P) = assay: KINOMEscan; type: binding; details: 1000 nM
# TBK1 = assay: KINOMEscan; type: binding; details: 1000 nM
# [2] = system: RSK3(Kin.Dom.1-N-terminal); assay: KINOMEscan; type: binding; details: 1000 nM
# [3] = system: RSK1(Kin.Dom.2-C-terminal); assay: KINOMEscan; type: binding; details: 1000 nM
# BRSK2 = assay: KINOMEscan; type: binding; details: 1000 nM
# HIPK2 = assay: KINOMEscan; type: binding; details: 1000 nM
# CSNK1G3 = assay: KINOMEscan; type: binding; details: 1000 nM
# PAK3 = assay: KINOMEscan; type: binding; details: 1000 nM
# ERBB3 = assay: KINOMEscan; type: binding; details: 1000 nM
# FLT3 = assay: KINOMEscan; type: binding; details: 1000 nM
# AURKA = assay: KINOMEscan; type: binding; details: 1000 nM
# PKMYT1 = assay: KINOMEscan; type: binding; details: 1000 nM
# [4] = system: RSK1(Kin.Dom.1-N-terminal); assay: KINOMEscan; type: binding; details: 1000 nM
# ASK2 = assay: KINOMEscan; type: binding; details: 1000 nM
# LATS1 = assay: KINOMEscan; type: binding; details: 1000 nM
# SGK = assay: KINOMEscan; type: binding; details: 1000 nM
# YSK1 = assay: KINOMEscan; type: binding; details: 1000 nM
# MAK = assay: KINOMEscan; type: binding; details: 1000 nM
# ACVR1 = assay: KINOMEscan; type: binding; details: 1000 nM
# [5] = system: RSK4(Kin.Dom.2-C-terminal); assay: KINOMEscan; type: binding; details: 1000 nM
# [6] = system: RSK2(Kin.Dom.1-N-terminal); assay: KINOMEscan; type: binding; details: 1000 nM
# MYLK2 = assay: KINOMEscan; type: binding; details: 1000 nM
# PRKCH = assay: KINOMEscan; type: binding; details: 1000 nM
# EIF2AK1 = assay: KINOMEscan; type: binding; details: 1000 nM
# [7] = system: EGFR(L747-E749del, A750P); assay: KINOMEscan; type: binding; details: 1000 nM
# SNARK = assay: KINOMEscan; type: binding; details: 1000 nM
# ACVR1B = assay: KINOMEscan; type: binding; details: 1000 nM
# YES = assay: KINOMEscan; type: binding; details: 1000 nM
# FLT1 = assay: KINOMEscan; type: binding; details: 1000 nM
# ADCK3 = assay: KINOMEscan; type: binding; details: 1000 nM
# HIPK3 = assay: KINOMEscan; type: binding; details: 1000 nM
# CAMK2A = assay: KINOMEscan; type: binding; details: 1000 nM
# ITK = biological target: T1, ITK (Homo sapiens, UniProt Q08881); assay: KINOMEscan; type: binding; details: 1000 nM, read-out: Percent Control
# T1 construct: purchased Invitrogen (Carlsbad, CA, USA)
# T1 sequence (Q08881 1-620): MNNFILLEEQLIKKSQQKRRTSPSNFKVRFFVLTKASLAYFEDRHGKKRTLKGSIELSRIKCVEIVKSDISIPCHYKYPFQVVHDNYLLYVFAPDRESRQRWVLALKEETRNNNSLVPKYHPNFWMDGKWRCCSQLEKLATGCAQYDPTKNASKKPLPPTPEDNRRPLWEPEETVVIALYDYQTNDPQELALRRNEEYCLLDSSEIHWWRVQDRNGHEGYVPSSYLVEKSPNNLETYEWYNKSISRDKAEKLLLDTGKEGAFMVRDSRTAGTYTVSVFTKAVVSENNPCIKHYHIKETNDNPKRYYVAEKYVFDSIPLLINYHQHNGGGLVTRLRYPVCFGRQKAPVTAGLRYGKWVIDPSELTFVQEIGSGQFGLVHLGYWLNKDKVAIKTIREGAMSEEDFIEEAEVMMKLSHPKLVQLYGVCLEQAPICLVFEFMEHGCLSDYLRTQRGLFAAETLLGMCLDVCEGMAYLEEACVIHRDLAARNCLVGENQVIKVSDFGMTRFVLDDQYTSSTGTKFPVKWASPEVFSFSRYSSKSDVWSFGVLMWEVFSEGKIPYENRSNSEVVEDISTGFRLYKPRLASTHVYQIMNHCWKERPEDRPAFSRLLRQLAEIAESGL
# MINK = assay: KINOMEscan; type: binding; details: 1000 nM
# GSK3B = assay: KINOMEscan; type: binding; details: 1000 nM
# MEK1 = assay: KINOMEscan; type: binding; details: 1000 nM
# LYN = assay: KINOMEscan; type: binding; details: 1000 nM
# DMPK2 = assay: KINOMEscan; type: binding; details: 1000 nM
# NLK = assay: KINOMEscan; type: binding; details: 1000 nM
compound,measurement,setting,value
C=CC(=O)Nc1cc(Nc2cc(-c3cccc(NC(=O)c4cc5c(s4)CCCC5)c3C)cn(C)c2=O)ccc1N1CCN(CC)CC1 [CHMFL-BTK-85],tolerability in dose escalation study,[1],well tolerated
same,Percent Control,ERBB4,91%
same,Percent Control,AMPK-alpha1,100%
same,Percent Control,KIT(A829P),92%
same,Percent Control,TBK1,72%
same,Percent Control,[2],85%
same,Percent Control,[3],100%
same,Percent Control,BRSK2,99%
same,Percent Control,HIPK2,100%
same,Percent Control,CSNK1G3,100%
same,Percent Control,PAK3,100%
same,Percent Control,ERBB3,95%
same,Percent Control,FLT3,80%
same,Percent Control,AURKA,92%
same,Percent Control,PKMYT1,63%
same,Percent Control,[4],100%
same,Percent Control,ASK2,100%
same,Percent Control,LATS1,100%
same,Percent Control,SGK,100%
same,Percent Control,YSK1,80%
same,Percent Control,MAK,89%
same,Percent Control,ACVR1,99%
same,Percent Control,[5],83%
same,Percent Control,[6],100%
same,Percent Control,MYLK2,91%
same,Percent Control,PRKCH,93%
same,Percent Control,EIF2AK1,100%
same,Percent Control,[7],57%
same,Percent Control,SNARK,100%
same,Percent Control,ACVR1B,95%
same,Percent Control,YES,17%
same,Percent Control,FLT1,100%
same,Percent Control,ADCK3,78%
same,Percent Control,HIPK3,100%
same,Percent Control,CAMK2A,82%
same,remaining binding at 1 µM,ITK,77%
same,Percent Control,MINK,88%
same,Percent Control,GSK3B,100%
same,Percent Control,MEK1,100%
same,Percent Control,LYN,100%
same,Percent Control,DMPK2,100%
same,Percent Control,NLK,100%
